# Measurements taken from ChEMBL document CHEMBL3784972, “Optimization of N'-(arylsulfonyl)pyrazoline-1-carboxamidines by exploiting a novel interaction site in the 5-HT6 antagonistic binding pocket” (Bioorg Med Chem Lett, 2016).
# How the values were obtained:
# LLC-PK1 = conditions: pig
# Description: Permeability across pig LLC-PK1 cells expressing MDR assessed as membrane passage at 1 ug/ml after 3 hrs by LC/MS analysis
# MDR = experiment: in vitro; conditions: pig, LLC-PK1
# Description: Permeability across pig LLC-PK1 cells expressing MDR assessed as ratio of bottom to top transport over top to bottom transport at 1 ug/ml after 3 hrs by LC/MS analysis
# in vitro [1] = conditions: Sprague Dawley, rat, hepatocytes
# in vitro [2] = conditions: human, hepatocytes
# [3] = target: T1, 5-hydroxytryptamine receptor 6 (Homo sapiens, UniProt P50406); experiment: Displacement of [3H]-N-Methyl-Lysergic acid diethylamide from human 5-HT6 receptor expressed in CHO cells after 30 mins by liquid scintillation counting analysis; type: cell-based
# [4] = target: T1, 5-hydroxytryptamine receptor 6; experiment: Antagonist activity at human recombinant 5-HT6 receptor expressed in CHO cells assessed as inhibition of agonist induced intracellular calcium levels by aequorin assay; type: functional, cell-based; conditions: read-out: pA2 (converted)
# [5] = target: Voltage-gated inwardly rectifying potassium channel KCNH2 (Homo sapiens, UniProt Q12809); experiment: Inhibition of human ERG
# Dopamine receptor = experiment: Binding affinity to dopamine receptor (unknown origin); type: protein assay, Homo sapiens
# Cannabinoid receptor = Cannabinoid receptor (Homo sapiens, UniProt P34972+P21554); experiment: Binding affinity to Cannabinoid receptor (unknown origin); type: protein assay
# [6] = Binding affinity to Muscarinic receptor (unknown origin); parameters: species or system Homo sapiens
# [7] = Binding affinity to alpha adrenergic receptor (unknown origin); parameters: species or system Homo sapiens
# [8] = Lipophilicity, log D of the compound at pH 7; type: physicochemical; conditions: buffer
# [9] = Tmax in rat plasma at 10 mg/kg, po; type: ADME, organism-based
# [10] = Tmax in rat CNS at 10 mg/kg, po; type: ADME, organism-based
# [11] = Clearance in rat at 10 mg/kg, po; type: ADME, organism-based; conditions: in vivo
# [12] = Oral bioavailability in rat at 10 mg/kg; type: ADME, organism-based; conditions: in vivo
# [13] = Ratio of drug uptake in rat CNS to plasma at 10 mg/kg, po; type: ADME, organism-based
# [14] = Fraction unbound in rat brain at 10 mg/kg, po; type: ADME, organism-based
# Rattus norvegicus = experiment: Inhibition of cognitive impairment in po dosed rat administered 0.5 hrs before testing; type: functional
# [15] = Cmax in rat plasma at 20 mg/kg, po; type: ADME, organism-based; parameters: dose 20 mg/kg, route oral
# [16] = target: Serotonin (5-HT) receptor; experiment: Binding affinity to 5-HT receptor (unknown origin); type: protein assay, Homo sapiens
# T1 sequence (P50406 whole entry): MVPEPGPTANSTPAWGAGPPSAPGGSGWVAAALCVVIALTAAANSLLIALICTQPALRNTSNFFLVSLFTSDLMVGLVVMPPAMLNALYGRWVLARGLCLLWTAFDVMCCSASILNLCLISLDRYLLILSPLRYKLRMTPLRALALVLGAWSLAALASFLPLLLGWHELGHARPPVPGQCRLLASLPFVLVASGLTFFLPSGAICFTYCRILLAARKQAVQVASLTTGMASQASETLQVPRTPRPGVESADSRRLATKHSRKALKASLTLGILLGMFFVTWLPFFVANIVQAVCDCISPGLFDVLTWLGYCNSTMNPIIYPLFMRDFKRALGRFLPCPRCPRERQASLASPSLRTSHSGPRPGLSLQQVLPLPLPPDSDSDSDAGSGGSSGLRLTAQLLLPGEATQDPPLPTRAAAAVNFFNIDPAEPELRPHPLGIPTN
# Voltage-gated inwardly rectifying potassium channel KCNH2, sequence (Q12809 whole entry): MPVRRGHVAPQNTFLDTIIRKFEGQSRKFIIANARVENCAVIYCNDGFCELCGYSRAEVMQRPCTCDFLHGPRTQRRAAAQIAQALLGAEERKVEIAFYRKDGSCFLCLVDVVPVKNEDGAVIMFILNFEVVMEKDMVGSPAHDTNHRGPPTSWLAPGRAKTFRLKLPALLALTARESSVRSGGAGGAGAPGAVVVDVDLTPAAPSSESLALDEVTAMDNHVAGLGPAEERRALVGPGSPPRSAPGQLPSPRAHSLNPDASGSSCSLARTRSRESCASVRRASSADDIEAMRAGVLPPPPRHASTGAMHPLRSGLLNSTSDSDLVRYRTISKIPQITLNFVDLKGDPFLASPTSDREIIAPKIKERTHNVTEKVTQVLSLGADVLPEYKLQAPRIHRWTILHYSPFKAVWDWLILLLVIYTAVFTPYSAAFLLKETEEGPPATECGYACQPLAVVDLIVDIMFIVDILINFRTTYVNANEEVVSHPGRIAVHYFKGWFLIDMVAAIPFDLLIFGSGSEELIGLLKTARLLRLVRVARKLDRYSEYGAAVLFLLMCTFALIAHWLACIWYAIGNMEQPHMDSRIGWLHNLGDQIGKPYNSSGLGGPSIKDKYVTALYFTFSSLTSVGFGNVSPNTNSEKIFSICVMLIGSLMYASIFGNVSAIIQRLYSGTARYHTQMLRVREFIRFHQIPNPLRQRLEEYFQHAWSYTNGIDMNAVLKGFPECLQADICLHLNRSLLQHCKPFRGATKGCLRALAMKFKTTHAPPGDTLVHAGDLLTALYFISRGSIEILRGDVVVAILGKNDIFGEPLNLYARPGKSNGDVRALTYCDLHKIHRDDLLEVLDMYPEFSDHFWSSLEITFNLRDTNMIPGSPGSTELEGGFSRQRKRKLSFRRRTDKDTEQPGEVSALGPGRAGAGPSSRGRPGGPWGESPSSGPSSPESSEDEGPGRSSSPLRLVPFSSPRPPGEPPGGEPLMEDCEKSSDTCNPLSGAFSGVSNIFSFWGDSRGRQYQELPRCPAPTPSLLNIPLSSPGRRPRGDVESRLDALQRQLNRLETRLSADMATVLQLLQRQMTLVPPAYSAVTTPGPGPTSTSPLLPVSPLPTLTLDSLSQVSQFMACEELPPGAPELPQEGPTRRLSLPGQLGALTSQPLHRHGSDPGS
Compound,"permeability (LLC-PK1; llc-pk1, 3 h, at 1 µg/mL)","efflux ratio at 3 h, 1 ug/ml (MDR)",hepatocyte CLint (in vitro [1]),hepatocyte CLint (in vitro [2]),Ki [3],Kb [4],other results
CCN/C(=N\S(=O)(=O)c1ccccc1)N1CC(CC)C=N1 (stereo not given),38.2%,1.1,92 µL/min/1e6 cells,15 µL/min/1e6 cells,,,
CCN/C(=N\S(=O)(=O)c1cccc(Cl)c1)N1N=CCC1c1ccccc1 (stereo not given),,,,,,,"permeability (LLC-PK1; LLC-PK1, 3 h): 38.5%"
CCN/C(=N\S(=O)(=O)c1cccc(Cl)c1)N1CC(C)(C)C=N1,41%,,,,,,
CCN/C(=N\S(=O)(=O)c1ccc2[nH]ccc2c1)N1CC2(C=N1)CCCC2,,,87 µL/min/1e6 cells,11 µL/min/1e6 cells,4.8 nM,0.316 nM,
CCN/C(=N\S(=O)(=O)c1ccc(OC)c(Cl)c1)N1CC2(C=N1)CCCC2,39.4%,1.3,,,> 1000 nM,> 1000 nM,
CCN/C(=N\S(=O)(=O)c1ccc(N)cc1)N1CC2(C=N1)CCNCC2,0.3%,,5 µL/min/1e6 cells,1 µL/min/1e6 cells,14.2 nM,,
CCN/C(=N\S(=O)(=O)c1cccc(O)c1)N1CC2(C=N1)CCCC2,40.7%,1.1,,,18.5 nM,7.94 nM,
CCN/C(=N\S(=O)(=O)c1cccc(OC)c1)N1CC2(C=N1)CCCC2,35.2%,3.2,,,97.1 nM,126 nM,
CCN/C(=N\S(=O)(=O)c1ccc(O)c(Cl)c1)N1CC2(C=N1)CCCC2,20.5%,2.4,66 µL/min/1e6 cells,34 µL/min/1e6 cells,14.6 nM,10 nM,
CCN/C(=N\S(=O)(=O)c1ccc(N)c(Cl)c1)N1CC2(C=N1)CCCC2,38.1%,,,27 µL/min/1e6 cells,1.8 nM,,
CCN/C(=N\S(=O)(=O)c1cc(O)cc(Cl)c1)N1CC2(C=N1)CCCC2,,,,107 µL/min/1e6 cells,6.1 nM,0.0501 nM,
CCN/C(=N\S(=O)(=O)c1ccc(N)cc1)N1CC(CC)C=N1 (stereo not given),31.6%,2.4,34 µL/min/1e6 cells,4 µL/min/1e6 cells,7.2 nM,3.98 nM,
CCN/C(=N\S(=O)(=O)c1ccc2c(c1)NCC2)N1CC(CC)C=N1 (stereo not given),36.5%,1.8,,,399 nM,> 1000 nM,
CCN/C(=N\S(=O)(=O)c1ccc(N)cc1)N1CC(C)(C)C=N1,31.6%,3,20 µL/min/1e6 cells,< 1.4 µL/min/1e6 cells,20.6 nM,,
CCN/C(=N\S(=O)(=O)c1cccc(Cl)c1)N1N=CCC1c1ccc(O)cc1 (stereo not given),34.9%,4.9,,,251 nM,> 1000 nM,
CCN/C(=N\S(=O)(=O)c1ccc2[nH]c(C(F)(F)F)cc2c1)N1CC(C)(C)C=N1,,,87 µL/min/1e6 cells,22 µL/min/1e6 cells,160 nM,> 1000 nM,
CCN/C(=N\S(=O)(=O)c1ccc2[nH]ncc2c1)N1CC2(C=N1)CCCC2,,,99 µL/min/1e6 cells,19 µL/min/1e6 cells,28.6 nM,12.6 nM,
CCN/C(=N\S(=O)(=O)c1ccc(OC)cc1)N1CC2(C=N1)CCCC2,40.4%,1.2,,,210 nM,> 1000 nM,
CCN/C(=N\S(=O)(=O)c1cccc(N)c1)N1CC2(C=N1)CCCC2,35.7%,3.2,,,97.2 nM,100 nM,
CCN/C(=N\S(=O)(=O)c1ccc(N)cc1)N1CC2(C=N1)CCCCC2,36.5%,3.3,53 µL/min/1e6 cells,17 µL/min/1e6 cells,7.1 nM,5.01 nM,
CCN/C(=N\S(=O)(=O)c1cc(Cl)cc(OC)c1)N1CC2(C=N1)CCCC2,,,,,47.5 nM,63.1 nM,
CCN/C(=N\S(=O)(=O)c1ccc(N)c(Cl)c1)N1CC(CC)C=N1 (stereo not given),38.5%,1.6,87 µL/min/1e6 cells,10 µL/min/1e6 cells,1.5 nM,0.794 nM,
CCN/C(=N\S(=O)(=O)c1ccc(N(C)C)cc1)N1CC(CC)C=N1 (stereo not given),38.2%,1.4,,,206 nM,> 1000 nM,
CCN/C(=N\S(=O)(=O)c1ccc(N)cc1)N1CC2(C=N1)CCCC2,35.1%,2.9,33 µL/min/1e6 cells,8 µL/min/1e6 cells,,3.98 nM,IC50 [5]: > 10 µM; Ki (Dopamine receptor): > 1000 nM; Ki (Cannabinoid receptor): > 1000 nM; Ki [6]: > 1000 nM; Ki [7]: > 1000 nM; logD [8]: 1; Tmax [9]: 30 min; Tmax [10]: 30 min; CL/F [11]: 26 mL/min/kg; bioavailability [12]: 18%; Kp [13]: 0.1; fraction unbound [14]: 0.31; LED (Rattus norvegicus): 20 mg/kg; Cmax [15]: 1100 ng/mL; Ki [16]: > 1000 nM
CCN/C(=N\S(=O)(=O)c1ccc(NC(C)=O)c(Cl)c1)N1CC(CC)C=N1 (stereo not given),34.4%,2,,,8.7 nM,10 nM,
CCN/C(=N\S(=O)(=O)c1ccc(O)cc1)N1CC2(C=N1)CCCC2,32%,5.9,42 µL/min/1e6 cells,21 µL/min/1e6 cells,5.8 nM,3.16 nM,
CCN/C(=N\S(=O)(=O)c1ccc2cc[nH]c2c1)N1CC(CC)C=N1 (stereo not given),37.7%,2.8,,,31.6 nM,79.4 nM,
CCN/C(=N\S(=O)(=O)c1cccc(Cl)c1)N1N=CCC1c1ccc(N)cc1 (stereo not given),36.2%,2.7,,,> 1000 nM,1580 nM,
CCN/C(=N\S(=O)(=O)c1ccc2c(c1)CCN2)N1CC2(C=N1)CCCC2,36.5%,2.6,,,25 nM,5.01 nM,
CCN/C(=N\S(=O)(=O)c1ccc2[nH]ccc2c1)N1CC2(C=N1)CCNCC2,,,,1 µL/min/1e6 cells,11.6 nM,,
